These results are taken from publication PMC5735069, “Targeting the NFAT1-MDM2-MDMX Network Inhibits the Proliferation and Invasion of Prostate Cancer Cells, Independent of p53 and Androgen” (Frontiers in Pharmacology, 2017).

One assay addresses T1, MDMX (Homo sapiens, UniProt O15151).
T1 construct: gene MDM4; GST-MDMX RING (RING domain)
T1 sequence (O15151 428-490 limits assumed): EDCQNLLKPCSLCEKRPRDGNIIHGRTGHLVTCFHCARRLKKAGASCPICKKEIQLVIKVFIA
As to the kind of experiment: biotin-InuA streptavidin pulldown with free InuA competition; time-dependent covalent binding kinetics by Western blot (biotin-InuA).

The next assay deals with T2, MDM2 (Homo sapiens, UniProt Q00987).
T2 construct: GST-MDM2 RING (RING domain)
T2 sequence (Q00987 428-491 limits assumed): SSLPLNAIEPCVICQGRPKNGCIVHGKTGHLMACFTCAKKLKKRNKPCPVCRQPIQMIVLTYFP
The assay is described as above.

On to Inulanolide A [InuA], for which the KI (inactivation) came out at 860 nM at MDMX and 550 nM on MDM2.
